In US20240182475A1 (Université de Lausanne, priority 2021, published 2024):

What was measured:
MOVAS cells [1] = test: MOVAS cell calcification assay (Alizarin red); format: cell-based, mouse
Method: A) Alizarin red staining of MOVAS cells stimulated with sCPP for 24 h in DMEM+10% FBS and treated or not with 50 uM of compounds. […] Statistical analysis was determined using one-way ANOVA with ***p<0.001. C) Percentage of cytotoxicity (LDH %) in MOVAS treated or not with compounds for 24 h. D) MOVAS cells were seeded onto half-area 96-well plate and incubated overnight. Then C5 or C6 at 50 uM or vehicle (DMSO), L-cysteine at 10 mM, PLP at 5 uM and the H2S sensitive fluorescent probe AzMC at 10 μM were added. The fluorescence was immediately measured in kinetic mode for 2 h at 37° C. with SpectraMax M5 reader, with excitation and emission wavelengths of 365 nm and 450 nm, respectively.
A) Alizarin red staining of Movas cells stimulated with sCPP for 24 h in DMEM+10% FBS and treated or not with 50 uM of Z20. […] C) Percentage of cytotoxicity (LDH %) in murine chondrocytes treated or not with Z20 for 24 h. Statistical analysis was determined using one-way ANOVA with ***p<0.001.
Alizarin red staining of MOVAS cells stimulated with sCPP for 24 h in DMEM+10% FBS and treated or not with different concentrations of compounds (A: C6) and (B: Z20). The graphs show Alizarin red absorbance at 570-630 nm. Statistical analysis was determined using one-way ANOVA with *p<0.05, **p<0.01, ***p<0.001.
CPP were generated by preparing 20 ml DMEM containing 10% FBS, 1 mmol/L CaCl2, 3.5 mmol/L inorganic phosphate (1.36 mmol/L NaH2PO4 and 2.14 mmol/L Na2HPO4) (Aghagolzadeh et al. Atherosclerosis, 2016). After 7 days incubation at 37° C., the suspension was centrifuged at 25000 g for 2 h at 4° C., and the pellet containing CPP was resuspended in 1 ml DMEM and stored at −20° C. until further use.
Mouse vascular smooth muscle cell line (MOVAS) cells were cultured according to the manufacturer's guidelines in DMEM culture medium supplemented with 10% FBS. Cells were cultured at 37° C. in a humidified atmosphere with 5% CO2. All cell culture experiments in 96-well plates were performed in triplicates and were repeated independently two times.
For calcification experiments, cells were seeded in 96-well plates at a density of 50,000 cells/well and left to attach for 18 h. Calcification of cell monolayers was induced by CPP (equivalent to 50 μg Ca/mL) for 24 h at 37° C., 5% CO2 in presence of various concentrations of compounds (all in final 0.1% DMSO), or of 0.1% DMSO as a control, to reach a final volume of 200 μl/well. Calcium deposition was assessed by 0.5% w/v Alizarin Red staining (pH 4.2). Briefly, after PBS washing, methanol fixation for 10 min at 4° C., and milli-Q water washing, cells were incubated for 60 min with 200 μL Alizarin Red solution and then washed four times with milli-Q water. Quantification was performed after crystal dissolution with cetylpyridinium chloride (10%) for 18 h. The absorbance was measured at 570 and 630 nm using the Spectramax M5e reader (Molecular Devices). The background (alizarin red staining obtained with cells in the absence of CPP) was subtracted from all values.

MOVAS cells [2] = test: Cytotoxicity assay, LDH release; format: cell-based, mouse; conditions: at 50 uM
Method: A) Alizarin red staining of MOVAS cells stimulated with CPP for 24 h in DMEM+10% FBS in presence of different concentrations of compound 22401. […] The background (Alizarin red staining obtained with cells in the absence of CPP) was subtracted from all values. B) Percentage of cytotoxicity, as measured by LDH release, in MOVAS cells in the same conditions as A). Statistical analysis was determined using one-way ANOVA with *p<0.05, **p<0.01, ***p<0.001.
Measurement of lactate dehydrogenase (LDH) as a means of cytotoxicity assay was performed with using CytoTox-ONE Homogeneous Membrane Integrity Assay (Promega) according to the manufacturer's instructions. Values were calculated as percentage of cytotoxicity using the following formula: [(value in sample)−(background)]/[(value in Triton X-100-treated sample)−(background)]×100.

[3] = tested on: WT murine primary chondrocytes; test: Murine primary chondrocyte calcification (Alizarin red); format: cell-based, mouse; conditions: sCPP 24 h, DMEM+10% FBS, 50 uM
Method: (a) WT and Cse-deficient chondrocytes were incubated with a CSE activator (SU004, 50 μM) previously identified by high-through put screen, or with the equivalent volume of DMSO (0.1%) for 24 hours in calcification medium. STS 25 mM was used as a positive control for calcification inhibition. Calcium-containing crystals were stained with Alizarin red and quantified. (b) Cytotoxicity was assessed by LDH measurement and expressed as % over 100% cytotoxicity. (c) IL-6 secretion was measured by ELISA in supernatant of WT chondrocytes incubated with SU004 50 μM or STS 25 mM for 24 hours in calcification medium. (d) Primary human chondrocytes from 3 OA patients (P1, P2, P3) were incubated with SU004 50 μM, or with the equivalent volume of DMSO (0.1%) for 24 hours in calcification medium. Calcium-containing crystals were stained with Alizarin red and quantified. (e) Cytotoxicity was assessed by LDH measurement and expressed as % over 100% cytotoxicity. (f) IL-6 secretion was measured by ELISA in supernatant of human chondrocytes incubated for 24 hours with SU004 50 μM in calcification medium. *p<0.05, ** p<0.01, ****p<0.0001.
Primary murine chondrocytes were stimulated with secondary calciprotein particles (sCPP) for 24 h in DMEM+10% FBS in presence of C5 or C6 at 50 uM or vehicle (DMSO). Mineralization was analyzed by Alizarin red staining of the cells (A) and quantified (B). Statistical analysis was determined using one-way ANOVA with **p<0.01 and ***p<0.001.
Chondrocytes were isolated from 6 days old mice (Cse KO, Cse tg, Cbs KO and corresponding WT mice) as described previously (Nasi, So, et al. 2016). Tenocytes were isolated from 6 to 8 weeks old mice (Cse KO and WT) and by double digestion in Collagenase IV NB standard grade (Witec AG). […]
After incubation in calcification media, supernatant was collected for ELISA and LDH measurement, and cell monolayer was washed in PBS, fixed in 10% formol and crystal deposition analyzed through Alizarin red staining and quantified as previously described

ATDCS chondrocytes = test: ATDCS chondrocyte mineralization (Alizarin red); format: cell-based; conditions: sCPP 24 h, different concentrations
Method: Alizarin red staining of ATDCS chondrocytes stimulated with sCPP for 24 h in DMEM+10% FBS in presence of different concentrations of compounds C5 and C6. The graphs show Alizarin red absorbance at 570-630 nm. Statistical analysis (in comparison to 0) was determined using one-way ANOVA with *p<0.05, **p<0.01, ***p<0.001, […].

## N-{1-[(pyridin-2-yl)methyl]-1H-pyrazol-4-yl}benzamide [Compound 12]
MOVAS cells [1]; at 50 uM
  Calcification assay Max calcification inhibition (%) at the indicated dose of compound (uM): 43% at
MOVAS cells [1]; sCPP 24 h, 50 uM
  Mineralization (Alizarin red): inhibit murine vascular smooth muscle cells (MOVAS cells) mineralization
MOVAS cells [1]; sCPP 24 h, different concentrations
  Mineralization (Alizarin red absorbance 570-630 nm): Dose-dependent effect
MOVAS cells [2]
  Cytotoxicity assay LDH release (% of cytotoxicity): 13% at
[3]
  Mineralization (Alizarin red): inhibit primary murine chondrocyte mineralization
ATDCS chondrocytes
  Mineralization (Alizarin red absorbance 570-630 nm): inhibit ATDCS mineralization in vitro in a dose dependent fashion
